Converted amounts (≈) assume the structure as drawn.
Tests used:
Assay type in all cases: cell-based
[1] = tested on: Trichophyton mentagrophytes TIMM2789; assay: In vitro anti-tinea fungus activity test (T. mentagrophytes); conditions: Table 22, 27° C. for 3 days, alamar Blue, minimum concentration showing 80% or more inhibition
Method: (§1) Trichophyton rubrum NBRC6203 and Trichophyton mentagrophytes TIMM2789 were used as the strains. The test fungi were cultured on a Sabouraud dextrose agar slant medium at 27° C. for 10-13 days, and then suspended in sterilized saline. The number of cells in this suspension was counted using a hemocytometer, and the same suspension was adjusted to a cell concentration of 2×10^6 conidia/mL, and this was used as an inoculum. Each compound was dissolved in dimethyl sulfoxide to a predetermined concentration, and diluted 50-fold with 0.165 M MOPS buffered RPMI 1640 liquid medium, and each diluted solution was dispensed into a 96-well microplate by each 100 μL. The inoculum was diluted 50-fold with 0.165 M MOPS buffered RPMI 1640 liquid medium containing 20% alamar Blue™, and the diluted solution was inoculated into the 96-well microplate containing the compound by each 100 μL (final inoculum amount 2×10^4 conidia/mL). After static culture at 27° C. for 3 days (Trichophyton mentagrophytes) or for 5 days (Trichophyton rubrum), the degree of color development of the alamar Blue™ was measured using a microplate reader (O.D. 570-595 nm), and the minimum concentration showing 80% or more inhibition was defined as the minimum inhibitory concentration (MIC).

[2] = tested on: Trichophyton rubrum NBRC6203; assay: In vitro anti-tinea fungus activity test (T. rubrum); conditions: Table 22, 27° C. for 5 days, alamar Blue, minimum concentration showing 80% or more inhibition
Method: as §1

[3] = tested on: Candida albicans NBRC1270; assay: In vitro anti-Candida activity test; conditions: Table 22, 35° C. for 24 hr, alamar Blue, minimum concentration showing 80% or more inhibition
Method: Candida albicans NBRC1270 was used as the strain. The test fungi were cultured on a Sabouraud dextrose agar slant medium at 35° C. for 24 hr, and then suspended in sterilized saline. The number of cells in this suspension was counted using a hemocytometer, and the same suspension was adjusted to a cell concentration of 1.5×10^5 cells/mL, and this was used as an inoculum. Each compound was dissolved in dimethyl sulfoxide to a predetermined concentration, and diluted 50-fold with 0.165 M MOPS buffered RPMI 1640 liquid medium, and each diluted solution was dispensed into a 96-well microplate by each 100 μL. The inoculum was diluted 50-fold with 0.165 M MOPS buffered RPMI 1640 liquid medium containing 20% alamar Blue™, and the diluted solution was inoculated into the 96-well microplate containing the compound by each 100 μL (final inoculum amount 1.5×10^3 cells/mL). After static culture at 35° C. for 24 hr, the degree of color development of the alamar Blue™ was measured using a microplate reader (O.D. 570-595 nm), and the minimum concentration showing 80% or more inhibition was defined as the minimum inhibitory concentration (MIC).

[4] = tested on: Aspergillus fumigatus TIMM0063; assay: In vitro anti-Aspergillus activity test; conditions: Table 22, 35° C. for 48 hr, alamar Blue, minimum concentration showing 80% or more inhibition
Method: Aspergillus fumigatus TIMM0063 was used as the strain. The test fungi were cultured on a Potato dextrose agar slant medium at 35° C. for 4 days, and then sterilized saline containing 0.1% (v/v) Tween 80 was added to release the conidia. This conidial suspension was filtered through sterile gauze, and the number of conidia was counted using a hemocytometer. The same solution was adjusted to a conidial concentration of 1×10^6 conidia/mL, and this was used as an inoculum. Each compound was dissolved in dimethyl sulfoxide to a predetermined concentration, and diluted 50-fold with 0.165 M MOPS buffered RPMI 1640 liquid medium, and each diluted solution was dispensed into a 96-well microplate by each 100 μL. The inoculum was diluted 50-fold with 0.165 M MOPS buffered RPMI 1640 liquid medium containing 20% alamar Blue™, and the diluted solution was inoculated into the 96-well microplate containing the compound by each 100 μL (final inoculum amount 1.0×10^4 conidia/mL). After static culture at 35° C. for 48 hr, the degree of color development of the alamar Blue™ was measured using a microplate reader (O.D. 570-595 nm), and the minimum concentration showing 80% or more inhibition was defined as the minimum inhibitory concentration (MIC).

minimum inhibitory concentration against various fungi (MIC) T. mentagrophytes [1]	minimum inhibitory concentration against various fungi (MIC) T. rubrum [2]	minimum inhibitory concentration against various fungi (MIC) C. albicans [3]	minimum inhibitory concentration against various fungi (MIC) A. fumigatus [4]	Structure (SMILES)
0.01 µg/mL (≈ 25.5 nM)	≤1 ng/mL	5 ng/mL (≈ 12.7 nM)	5 ng/mL (≈ 12.7 nM)	CCO/N=C/c1cnc(C2CS/C(=C(/C#N)n3cncn3)S2)c(Cl)c1 (stereo not drawn) [compound 21]
0.01 µg/mL (≈ 22 nM)	≤1 ng/mL	0.6 ng/mL (≈ 1.32 nM)	5 ng/mL (≈ 11 nM)	N#C/C(=C1/SCC(c2ncc(/C=N/OCc3ccccc3)cc2Cl)S1)n1cncn1 (stereo not drawn) [compound 23]
≤0.001 µg/mL	≤1 ng/mL	2.5 ng/mL (≈ 6.62 nM)	2.5 ng/mL (≈ 6.62 nM)	CO/N=C/c1cnc(C2CS/C(=C(/C#N)n3ccnc3)S2)c(Cl)c1 (stereo not drawn) [compound 24]
